Data published in ChEMBL document CHEMBL3301361, “Experimental in vitro DMPK and physicochemical data on a set of publicly disclosed compounds”.
≈ marks a conversion by molar mass, not a printed value.

Tests used:
physchem [1] = conditions: pH 7.4 buffer
physchem [2] = conditions: octan-1-ol/water, pH 7.4, LogD7.4

SMILES	solubility thermodynamic (physchem [1]) [µM]	logD (physchem [2])
O=C(O)C[C@@H]1c2ccccc2C[C@H]1NC(=O)c1cc2sc(Cl)c(Cl)c2[nH]1	1510 (≈ 620 µg/mL)	2.53
CCCCn1c(Cc2cc(OC)c(OC)c(OC)c2)nc2c(N)ncnc21	85.1 (≈ 31.6 µg/mL)	2.39
CCCc1c(O)c(O)c(C(=O)O)c2cc(Cc3ccccc3)c(C)cc12	204 (≈ 71.6 µg/mL)	2.6
CS(=O)(=O)c1cccc(Nc2nccc(Nc3cccc4ncoc34)n2)c1	5.6 (≈ 2.14 µg/mL)	2.5
COc1cc(C(=O)NS(=O)(=O)c2ccccc2C)ccc1Cc1cn(C)c2ccc(C(=O)NCCc3ccccc3)cc12	144 (≈ 86.1 µg/mL)	2.51
N#Cc1cnn(-c2ccccc2)c1NC(=O)CN1CCN(c2ccccc2)CC1	25.1 (≈ 9.7 µg/mL)	2.3
Clc1cccc(Cl)c1-c1nnc2cccc(Cl)n12	115 (≈ 34.3 µg/mL)	2.66
CCOC(=O)c1ccccc1-c1csc(NS(=O)(=O)c2ccc(Cl)cc2)n1	1.4 (≈ 0.592 µg/mL)	2.43
COc1ccc(S(=O)(=O)Nc2ccc(/C=C/C(=O)Nc3ccccc3N)cc2)cc1OC	7.8 (≈ 3.54 µg/mL)	2.56
CNc1ncc(C(=O)c2ccccc2)s1	724 (≈ 158 µg/mL)	2.36
Oc1ncnc2scc(-c3ccsc3)c12	178 (≈ 41.7 µg/mL)	2.25
COc1ccc(C(=O)C2CCN(C(=O)c3ccco3)CC2)cc1	380 (≈ 119 µg/mL)	2.42
NC(=O)c1sc(-c2ccsc2)cc1NS(=O)(=O)c1ccc(C(F)(F)F)cc1	4.8 (≈ 2.08 µg/mL)	2.39
COc1cccc2c(O)cc(-c3ccccc3)nc12	224 (≈ 56.3 µg/mL)	2.3
Nc1nc(-c2ccccn2)nc(N)c1Cc1ccccc1F	170 (≈ 50.1 µg/mL)	2.12
FC(F)(F)c1nnc2ccc(NCn3nnc4ccccc43)nn12	18.2 (≈ 6.08 µg/mL)	2.34
O=S(=O)(Nc1nc(-c2sccc2Cl)cs1)c1cc(Cl)ccc1Cl	151 (≈ 64.5 µg/mL)	2.11
CN1CCN(CC(=O)Nc2ccc(-c3cccn4c(=O)cc(N5CCOCC5)nc34)c3sc4ccccc4c23)CC1	5.4 (≈ 3.07 µg/mL)	2.6
CC1(COc2cc(-c3cccc4c(=O)cc(N5CCOCC5)oc34)ccc2NC(=O)CN2CCOCC2)COC1	36.3 (≈ 20 µg/mL)	2.2
COc1cc(-c2cccc3c(=O)cc(N4CCOCC4)oc23)ccc1NC(=O)CN1CCOCC1	13.2 (≈ 6.33 µg/mL)	2.3
O=C(Nc1ccccc1-c1ccccc1)OC1CCN(CCCCCCCCCNC[C@H](O)c2ccc(O)c3[nH]c(=O)ccc23)CC1	525 (≈ 336 µg/mL)	2.16
Nc1nc(-c2ccccc2)cs1	832 (≈ 147 µg/mL)	2.43

SMILES	solubility thermodynamic (physchem [1]) [µM]	logD (physchem [2])
COc1ccnc(N(C)c2ccnc(Nc3cc(N4CCOCC4)cc(N4CCOCC4)c3)n2)c1	51.3 (≈ 24.5 µg/mL)	2.23
FC(F)(F)c1nnc2ccc(N3CCCC3)nn12	417 (≈ 107 µg/mL)	2.41
CC1C(=O)Nc2ccccc2N1C(=O)c1ccccc1 (configuration not stated)	40.7 (≈ 10.8 µg/mL)	2.11
COc1cc2ncnc(Oc3cnn(CC(=O)Nc4ccc(N(C)C)cn4)c3)c2cc1OC	6.6 (≈ 2.97 µg/mL)	2.36
O=c1cc(-c2ccc(O)cc2)[nH]c2ccccc12	4.7 (≈ 1.12 µg/mL)	2.34
Cc1ccc(NC(=O)C2CC2)cc1-n1cnc2ccc(N3CCN(C)CC3)cc2c1=O	1510 (≈ 632 µg/mL)	2.17
Cc1ccc(NC(=O)c2ccoc2)cc1-n1cnc2ccc(N3CCN(C)CC3)cc2c1=O	1290 (≈ 571 µg/mL)	2.43
CN1CCN(c2ccc(NC(=O)c3nnc(Nc4ccccc4F)o3)cn2)CC1	91.2 (≈ 36.2 µg/mL)	2.36
CC(=O)N1CCN(c2ccc(NC(=O)c3nnc(Nc4ccccc4F)o3)cc2)CC1	6.2 (≈ 2.63 µg/mL)	2.51
NC(=O)c1sc(-c2ccccc2)cc1N	38.9 (≈ 8.49 µg/mL)	2.33
COc1cc2ncnc(Nc3cccc(Cl)c3F)c2cc1CN(C)C1(C(N)=O)CCN(C)CC1	282 (≈ 137 µg/mL)	2.16
Cc1cc(Nc2ccnc(NCc3cc(C4CC4)no3)n2)n[nH]1	63.1 (≈ 19.6 µg/mL)	2.5
Nc1ncnc2c1nc(Sc1nc3cccc(Cl)c3s1)n2CCO	2 (≈ 0.758 µg/mL)	2.37
CCCN(CCO)CCCOc1ccc2c(Nc3cc(CC(=O)Nc4cccc(F)c4F)[nH]n3)ncnc2c1	5.8 (≈ 3.13 µg/mL)	2.19
CCCSc1nc(N2CCC[C@H](CC(=O)O)C2)ccc1C(=O)NC1CCCCC1	174 (≈ 72.9 µg/mL)	2.18
CN1CCC(COc2cc(OC3CCOCC3)c3c(Nc4c(Cl)ccc5c4OCO5)ncnc3c2)CC1	1380 (≈ 727 µg/mL)	2.59
CN1CCN(S(=O)(=O)c2ccc(-c3cnc(N)c(C(=O)Nc4cccnc4)n3)cc2F)CC1	2.7 (≈ 1.27 µg/mL)	2.66
O=C(Nc1ccccc1O)c1cc([N+](=O)[O-])ccc1Cl	53.7 (≈ 15.7 µg/mL)	2.49
CS(=O)(=O)C1(c2cc(N3CCOCC3)nc(-c3ccccc3)n2)CC1	8.9 (≈ 3.2 µg/mL)	2.6
Cc1nc2ccc(Cl)cn2c1-c1ccnc(N)n1	759 (≈ 197 µg/mL)	2.49
CS(=O)(=O)c1ccc([C@@H](CC2CCCC2)C(=O)Nc2cnc([C@H](O)CO)cn2)cc1Cl	468 (≈ 219 µg/mL)	2.58
O=C(c1ccc(F)cc1)C(O)c1ccc(F)cc1 (configuration not stated)	933 (≈ 232 µg/mL)	2.49

SMILES	solubility thermodynamic (physchem [1]) [µM]	logD (physchem [2])
Nc1n[nH]c2nnc(-c3ccccc3)c(-c3ccccc3)c12	15.8 (≈ 4.54 µg/mL)	2.6
c1ccc(-c2n[nH]cc2-c2ccnc3ccccc23)nc1	26.3 (≈ 7.16 µg/mL)	2.57
CN(C)CC(O)COc1ccc(Nc2nccc(Nc3cccc(Cl)c3)n2)cc1 (configuration not stated)	120 (≈ 49.8 µg/mL)	2.5
Cc1sc(N2CCN(C)CC2)nc1CCOc1ccc(C[C@H](Nc2ccccc2C(=O)c2ccccc2)C(=O)O)cc1	97.7 (≈ 57.1 µg/mL)	2.58
Cc1ccc(NC(=O)c2ccnc(N3CCOCC3)c2)cc1Nc1ccnc(OCC(C)(C)CN(C)C)n1	490 (≈ 255 µg/mL)	2.2
COC(=O)COc1ccc(C(=O)Nc2ccc(F)cc2)cn1	55 (≈ 16.7 µg/mL)	2.43
COc1cc2ncnc(Nc3cccc(Cl)c3F)c2cc1CN1CCC[C@H]1CC(N)=O	234 (≈ 104 µg/mL)	2.64
NS(=O)(=O)c1cccc(Nc2nccc(Nc3cccc4[nH]ncc34)n2)c1	51.3 (≈ 19.6 µg/mL)	2.6
CN(C)CC(O)COc1ccc(Nc2nccc(N(CC#N)c3cc(Cl)ccc3Cl)n2)cc1 (configuration not stated)	575 (≈ 280 µg/mL)	2.4
CN(CCOc1ccc(C[C@H](Nc2ccccc2C(=O)c2ccccc2)C(=O)O)cc1)c1ccccn1	219 (≈ 108 µg/mL)	2.15
Cc1ncc(-c2nc(Nc3ccc(C(=O)N4CCN(C)CC4)cc3)ncc2F)n1C(C)C	57.5 (≈ 25.2 µg/mL)	2.49
COCCOCCOc1ccc(-c2cc(C(N)=O)c(NC(N)=O)s2)cc1	20.9 (≈ 7.93 µg/mL)	2.21
Cc1ncc(-c2ccnc(Nc3ccc(S(=O)(=O)CCCN4CCOCC4)cc3)n2)n1C(C)C	851 (≈ 412 µg/mL)	2.43
CC(=O)N1CCN(c2ccc(Nc3nccc(-c4cnc(C)n4C(C)C)n3)cc2)CC1	148 (≈ 62 µg/mL)	2.39
Cn1c(=O)n(Cc2ccc(C(=O)O)cc2)c(=O)c2cc(C#CCc3ccccc3)ccc21	3 (≈ 1.27 µg/mL)	2.5
Cc1ncc(-c2nc(Nc3ccc(C(=O)NC4CCN(C)CC4)c(F)c3)ncc2F)n1C(C)C	275 (≈ 129 µg/mL)	2.41
COc1ccc(CNCc2ccc(-c3cc(C(N)=O)c(NC(N)=O)s3)cc2)cc1	11.5 (≈ 4.72 µg/mL)	2.55
Cc1cccc(NS(=O)(=O)c2ccc(-c3ccc(C#N)cc3)cc2)n1	17.4 (≈ 6.08 µg/mL)	2.42
CCOc1ccc2nc(N)sc2c1	851 (≈ 165 µg/mL)	2.4
Cc1cc(Oc2ccnc(Nc3ccc(S(N)(=O)=O)cc3)c2)c(-c2ccccn2)nc1C	2.5 (≈ 1.12 µg/mL)	2.34
Cc1ccc(Oc2ccnc(Nc3ccc(S(N)(=O)=O)cc3)c2)c(C)n1	4.2 (≈ 1.56 µg/mL)	2.47
COc1cc(C(=O)NS(=O)(=O)c2ccccc2)ccc1Cn1ccc2ccc(NC(=O)OC3CCCC3)cc21	5.1 (≈ 2.79 µg/mL)	2.2
